Source: PubChem BioAssay AID248 (DTP/NCI, 2004)
Several values for one entry are separate records, joined by “and”; a condition that tells them apart may be missing. Equal values may be shown once. Inconclusive results and toxic doses are left out. No stated cut-off is given here; in the data, active means T/C of 150% or more; inactive means T/C below 125%.

System: L1210 leukemia ip in BDF1 mice, survival T/C
Assay: NCI In Vivo Anticancer Drug Screen. Data for tumor model L1210 Leukemia (intraperitoneal) in B6D2F1 (BDF1) mice
Details: endpoint: mean survival time, higher = longer survival
How it was run: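 Value reflects the ratio of survival in compound-treated mice to survival in vehicle-treated controls, with both groups carrying the same transplanted tumor.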

[1] = dose: 100.0 mg/kg/injection, schedule: Q01DX009 (ip), vehicle: Klucel (hydroxypropylcellulose) (HPC)
[2] = dose: 200.0 mg/kg/injection, schedule: Q01DX009 (ip), vehicle: Klucel (hydroxypropylcellulose) (HPC)
[3] = dose: 400.0 mg/kg/injection, schedule: Q01DX009 (ip), vehicle: Klucel (hydroxypropylcellulose) (HPC)

Measured: T/C

COc1cc(-c2ccc(Nc3ccccc3C(=O)O)c(OC)c2)ccc1Nc1ccccc1C(=O)O
inactive: dose: 6.0 mg/kg/injection, schedule: Q01DX006 (iv), vehicle: carboxymethylcellulose (CMC) 111 % of control | dose: 12.0 mg/kg/injection, schedule: Q01DX006 (iv), vehicle: carboxymethylcellulose (CMC) 106 % of control | dose: 13.0 mg/kg/injection, schedule: Q01DX Z (ip), vehicle: saline 122 % of control | dose: 20.0 mg/kg/injection, schedule: Q01DX Z (ip), vehicle: saline 114 % of control | dose: 25.0 mg/kg/injection, schedule: Q01DX006 (iv), vehicle: carboxymethylcellulose (CMC) 107 % of control | dose: 25.0 mg/kg/injection, schedule: Q01DX Z (ip), vehicle: carboxymethylcellulose (CMC) 103 % of control | dose: 29.0 mg/kg/injection, schedule: Q01DX Z (ip), vehicle: saline 116 % of control | dose: 37.5 mg/kg/injection, schedule: Q01DX006 (iv), vehicle: carboxymethylcellulose (CMC) 108 % of control | dose: 44.0 mg/kg/injection, schedule: Q01DX Z (ip), vehicle: carboxymethylcellulose (CMC) 104 % of control and 112 % of control | dose: 44.0 mg/kg/injection, schedule: Q01DX Z (ip), vehicle: methylcellulose (MC) 100 % of control | dose: 44.0 mg/kg/injection, schedule: Q01DX Z (ip), vehicle: saline 117 % of control and 122 % of control | dose: 45.0 mg/kg/injection, schedule: Q01DX Z (ip), vehicle: carboxymethylcellulose (CMC) 104 % of control | dose: 50.0 mg/kg/injection, schedule: Q01DX006 (iv), vehicle: carboxymethylcellulose (CMC) 106 % of control | dose: 50.0 mg/kg/injection, schedule: Q01DX015 (ip), vehicle: saline 98 % of control | dose: 50.0 mg/kg/injection, schedule: Q01DX Z (ip), vehicle: carboxymethylcellulose (CMC) 97 % of control and 101 % of control | dose: 64.0 mg/kg/injection, schedule: Q01DX Z (ip), vehicle: carboxymethylcellulose (CMC) 102 % of control | dose: 66.0 mg/kg/injection, schedule: Q01DX Z (ip), vehicle: carboxymethylcellulose (CMC) 110 % of control | dose: 66.0 mg/kg/injection, schedule: Q01DX Z (ip), vehicle: methylcellulose (MC) 105 % of control | dose: 66.0 mg/kg/injection, schedule: Q01DX Z (ip), vehicle: saline 109 % of control and 114 % of control | dose: 98.0 mg/kg/injection, schedule: Q01DX Z (ip), vehicle: methylcellulose (MC) 98 % of control | dose: 98.0 mg/kg/injection, schedule: Q01DX Z (ip), vehicle: saline 97 % of control | dose: 99.0 mg/kg/injection, schedule: Q01DX Z (ip), vehicle: carboxymethylcellulose (CMC) 100 % of control | dose: 100.0 mg/kg/injection, schedule: Q01DX015 (ip), vehicle: saline 96 % of control | dose: 100.0 mg/kg/injection, schedule: Q01DX Z (ip), vehicle: saline 119 % of control | dose: 147.0 mg/kg/injection, schedule: Q01DX Z (ip), vehicle: methylcellulose (MC) 110 % of control | dose: 147.0 mg/kg/injection, schedule: Q01DX Z (ip), vehicle: saline 100 % of control | dose: 150.0 mg/kg/injection, schedule: Q01DX Z (ip), vehicle: carboxymethylcellulose (CMC) 95 % of control | dose: 200.0 mg/kg/injection, schedule: Q01DX015 (ip), vehicle: saline 101 % of control | dose: 200.0 mg/kg/injection, schedule: Q01DX Z (ip), vehicle: carboxymethylcellulose (CMC) 103 % of control and 106 % of control | dose: 200.0 mg/kg/injection, schedule: Q01DX Z (oral), vehicle: carboxymethylcellulose (CMC) 103 % of control | dose: 220.0 mg/kg/injection, schedule: Q01DX Z (ip), vehicle: methylcellulose (MC) 98 % of control | dose: 220.0 mg/kg/injection, schedule: Q01DX Z (ip), vehicle: saline 108 % of control | dose: 334.0 mg/kg/injection, schedule: Q01DX Z (ip), vehicle: saline 120 % of control | dose: 400.0 mg/kg/injection, schedule: Q01DX015 (ip), vehicle: saline 96 % of control | dose: 400.0 mg/kg/injection, schedule: Q01DX Z (oral), vehicle: carboxymethylcellulose (CMC) 103 % of control | dose: 800.0 mg/kg/injection, schedule: Q01DX Z (oral), vehicle: carboxymethylcellulose (CMC) 95 % of control | dose: 1600.0 mg/kg/injection, schedule: Q01DX Z (oral), vehicle: carboxymethylcellulose (CMC) 111 % of control

CCOC(=O)CC(C)(O)C1CC1 (stereo not drawn)
inactive: dose: 100.0 mg/kg/injection, schedule: Q04DX003 (ip), vehicle: saline with Tween-80 98 % of control | dose: 200.0 mg/kg/injection, schedule: Q04DX003 (ip), vehicle: saline with Tween-80 96 % of control | dose: 400.0 mg/kg/injection, schedule: Q04DX003 (ip), vehicle: saline with Tween-80 98 % of control

O=c1[nH]c2nc3ccccc3nc2c(=O)n1OS(=O)(=O)c1ccccc1
inactive: [1] 96 % of control | [2] 100 % of control | [3] 98 % of control

N#CC(Nc1cc(=O)[nH]c(=O)[nH]1)c1ccccc1 (stereo not drawn)
inactive: dose: 100.0 mg/kg/injection, schedule: Q04DX002 (ip), vehicle: Klucel (hydroxypropylcellulose) (HPC) 105 % of control | dose: 200.0 mg/kg/injection, schedule: Q04DX002 (ip), vehicle: Klucel (hydroxypropylcellulose) (HPC) 108 % of control

O=C1C2C3CCC(O3)C2C(=O)N1CCOS(=O)(=O)c1ccc(Cl)cc1 (stereo not drawn)
inactive: dose: 75.0 mg/kg/injection, schedule: Q01DX009 (ip), vehicle: carboxymethylcellulose (CMC) 93 % of control | dose: 100.0 mg/kg/injection, schedule: Q04DX003 (ip), vehicle: carboxymethylcellulose (CMC) 100 % of control | dose: 150.0 mg/kg/injection, schedule: Q01DX009 (ip), vehicle: carboxymethylcellulose (CMC) 94 % of control | dose: 200.0 mg/kg/injection, schedule: Q04DX003 (ip), vehicle: carboxymethylcellulose (CMC) 102 % of control | dose: 300.0 mg/kg/injection, schedule: Q01DX009 (ip), vehicle: carboxymethylcellulose (CMC) 91 % of control | dose: 400.0 mg/kg/injection, schedule: Q04DX003 (ip), vehicle: carboxymethylcellulose (CMC) 96 % of control

CCCCOP(=O)(O)OCCCC.[Cd]
inactive: dose: 3.0 mg/kg/injection, schedule: Q01DX009 (ip), vehicle: Klucel (hydroxypropylcellulose) (HPC) 96 % of control | dose: 6.0 mg/kg/injection, schedule: Q01DX009 (ip), vehicle: Klucel (hydroxypropylcellulose) (HPC) 96 % of control | dose: 12.0 mg/kg/injection, schedule: Q01DX009 (ip), vehicle: Klucel (hydroxypropylcellulose) (HPC) 95 % of control | dose: 12.5 mg/kg/injection, schedule: Q01DX009 (ip), vehicle: Klucel (hydroxypropylcellulose) (HPC) 96 % of control | dose: 25.0 mg/kg/injection, schedule: Q01DX009 (ip), vehicle: Klucel (hydroxypropylcellulose) (HPC) 94 % of control

CCCCCCCCCCCCCCCC(N)=O
inactive: [1] 93 % of control | dose: 100.0 mg/kg/injection, schedule: Q04DX003 (ip), vehicle: Klucel (hydroxypropylcellulose) (HPC) 90 % of control | [2] 102 % of control | dose: 200.0 mg/kg/injection, schedule: Q04DX003 (ip), vehicle: Klucel (hydroxypropylcellulose) (HPC) 87 % of control | [3] 94 % of control | dose: 400.0 mg/kg/injection, schedule: Q04DX003 (ip), vehicle: Klucel (hydroxypropylcellulose) (HPC) 98 % of control

O=C1C=CC(=O)N1c1ccc(Cc2ccc(N3C(=O)C=CC3=O)cc2)cc1
inactive: dose: 26.6 mg/kg/injection, schedule: Q01DX Z (ip), vehicle: methylcellulose (MC) 90 % of control | dose: 40.0 mg/kg/injection, schedule: Q01DX Z (ip), vehicle: methylcellulose (MC) 95 % of control

CCN(CC)CCSc1nc2ccccc2[nH]1
inactive: dose: 55.0 mg/kg/injection, schedule: Q01DX Z (ip), vehicle: saline 104 % of control | dose: 83.0 mg/kg/injection, schedule: Q01DX Z (ip), vehicle: saline 91 % of control | dose: 125.0 mg/kg/injection, schedule: Q01DX Z (ip), vehicle: saline 94 % of control

ON=C1CCCCCCC1
inactive: dose: 12.5 mg/kg/injection, schedule: Q04DX002 (ip), vehicle: Klucel (hydroxypropylcellulose) (HPC) 105 % of control | dose: 25.0 mg/kg/injection, schedule: Q04DX002 (ip), vehicle: Klucel (hydroxypropylcellulose) (HPC) 96 % of control | dose: 50.0 mg/kg/injection, schedule: Q04DX002 (ip), vehicle: Klucel (hydroxypropylcellulose) (HPC) 101 % of control

CC(=O)Oc1c2ccsc2cc2ccsc12
inactive: dose: 100.0 mg/kg/injection, schedule: Q01DX001 (ip), vehicle: saline with Tween-80 100 % of control | dose: 200.0 mg/kg/injection, schedule: Q01DX001 (ip), vehicle: saline with Tween-80 96 % of control | dose: 400.0 mg/kg/injection, schedule: Q01DX001 (ip), vehicle: saline with Tween-80 96 % of control

CSC(N)=S
inactive: dose: 50.0 mg/kg/injection, schedule: Q01DX009 (ip), vehicle: saline 96 % of control | dose: 50.0 mg/kg/injection, schedule: Q04DX003 (ip), vehicle: saline 97 % of control | dose: 100.0 mg/kg/injection, schedule: Q01DX009 (ip), vehicle: saline 94 % of control | dose: 100.0 mg/kg/injection, schedule: Q04DX003 (ip), vehicle: saline 99 % of control | dose: 200.0 mg/kg/injection, schedule: Q04DX003 (ip), vehicle: saline 99 % of control
